# From paper PMC1253752, “Binding of Estrogenic Compounds to Recombinant Estrogen Receptor-α: Application to Environmental Analysis” (Environmental Health Perspectives, 2004)
# Like-named read-outs stand apart in the source and are kept apart here.
# Experiments:
# ER-α [1] = biological target: T1, ER-α (Homo sapiens, UniProt P03372); experiment: MELN cell luciferase assay (estrogen-responsive reporter in MCF-7 cells); format: cell-based
# T1 construct: we transfected ER-α–positive breast cancer MCF-7 cells; endogenous in cells; host or cells: MELN (MCF-7 stably transfected with ERE-βGlob-Luc-SVNeo)
# T1 sequence (P03372 1-595): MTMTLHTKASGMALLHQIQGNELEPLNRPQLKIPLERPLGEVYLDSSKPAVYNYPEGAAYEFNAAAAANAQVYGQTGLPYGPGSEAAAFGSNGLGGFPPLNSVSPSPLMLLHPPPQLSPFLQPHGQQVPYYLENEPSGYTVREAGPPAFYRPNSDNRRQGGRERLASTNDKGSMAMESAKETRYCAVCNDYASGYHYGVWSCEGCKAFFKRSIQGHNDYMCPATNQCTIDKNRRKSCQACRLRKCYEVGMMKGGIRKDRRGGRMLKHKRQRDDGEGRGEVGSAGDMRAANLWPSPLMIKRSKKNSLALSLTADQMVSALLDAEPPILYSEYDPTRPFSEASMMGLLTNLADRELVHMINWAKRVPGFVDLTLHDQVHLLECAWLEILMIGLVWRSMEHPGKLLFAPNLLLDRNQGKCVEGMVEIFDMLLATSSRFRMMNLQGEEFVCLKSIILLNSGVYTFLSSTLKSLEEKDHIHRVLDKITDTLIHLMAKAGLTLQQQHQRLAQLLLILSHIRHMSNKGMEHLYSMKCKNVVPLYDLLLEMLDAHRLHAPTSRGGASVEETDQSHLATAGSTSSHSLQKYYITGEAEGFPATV
# Protocol: Selection of resistant clones by geneticin was performed at 1 mg/mL.
# (§1) For strain cultures, cells were grown in phenol red containing Dulbecco’s modified Eagle medium, 1 g/L glucose, supplemented with 5% fetal calf serum (FCS), and 1% antibiotic (penicillin/streptomycin) in a 5% CO2 humidified atmosphere at 37°C.
# Cells were seeded at a density of 5 × 10^4 cells/well in 96-well white opaque tissue culture plates (Becton Dickinson, Le Pont de Claix, France) in 150 μL test culture medium. Compounds to be tested were prepared 4× concentrated in the same medium and 50 μL was added per well 8 hr after seeding. Cells were incubated with compounds for 16 hr. Experiments were performed in quadruplicate and repeated twice. At the end of incubation, effector containing medium was removed and replaced by […], luciferin diffuses into the cell and produces a luminescent signal that is stable from 5 min on. […] The 96-well plate was then introduced in a microplate luminometer (Centro LB 960, Berthold Technologies), and intact living cell luminescence measured for 2 sec. Results are expressed as a percentage of maximum luciferase activity. […] GraphPad Software Inc., San Diego, CA, USA). […]
# ER-α [2] = biological target: T1, ER-α; format: cell-based
# Protocol: Ten nanomoles of recombinant ER-αwere immobilized on 500 μL Ni-NTA-agarose phase. […] After rolling for 16 hr, flow-through and three 500-μL washings with WB were collected. Liganded receptor was then eluted with 3 × 500 μL EB, and eluate was heated at 65°C for 30 min in order to denature recombinant ER-α. Collected fractions were diluted 10-fold in culture medium before their relative estrogenic activity was evaluated with MELN reporter cells.
# Flow-through (1.5 mL), washing, and elution fractions (500 μL) were collected. Precolumn and flow-through fractions were diluted 10-fold in culture medium before their relative activities were evaluated with MELN and HAhLP reporter cells. Washing and elution fractions were diluted 30-fold in culture medium to take into account the fact that they were 3× concentrated.
# recombinant ER-α = biological target: T2, recombinant ER-α (Homo sapiens, UniProt P03372, C381S/C417S/C530S); format: cell-based; settings: compound at concentration giving about 80% MELN transactivation, 1-100 nM recombinant ER-α
# T2 construct: hER-αLBD(Lys302 → Pro552); made in house; host or cells: Escherichia coli BL21 DE3
# T2 sequence (P03372 302-552 C381S/C417S/C530S): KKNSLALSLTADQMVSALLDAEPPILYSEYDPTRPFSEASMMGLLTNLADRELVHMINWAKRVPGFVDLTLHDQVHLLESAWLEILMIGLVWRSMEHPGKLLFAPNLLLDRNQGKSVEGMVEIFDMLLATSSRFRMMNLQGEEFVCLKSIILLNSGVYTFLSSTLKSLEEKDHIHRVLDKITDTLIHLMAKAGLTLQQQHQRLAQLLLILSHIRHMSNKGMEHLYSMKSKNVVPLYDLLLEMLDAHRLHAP
# Protocol: MELN cells were seeded in 96-well white opaque tissue culture plates as described above. In separate tubes, estrogenic compounds at nonsaturating concentration mediating about 80% MELN cell activity or 0.1% methanol extract for environmental samples, were prepared 4×-concentrated and preincubated with the same volume of 4×-concentrated purified recombinant ER-α(1–100 nM final concentration) in test culture medium at 4°C for 16 hr. Medium from MELN cell culture plates was then removed and replaced by 100 μL of test culture medium supplemented with the same volume of preincubation medium. After 6 hr incubation at 37°C, luciferase activity was determined.
# [3] = biological target: T3, recombinant ER-α (hER-αLBD triple mutant) (Homo sapiens, UniProt P03372, C381S/C417S/C530S); settings: for RBA: ratio of IC50 values of E2 to competitor, E2 set at 100
# T3 sequence (P03372 302-552 C381S/C417S/C530S): T2 sequence (P03372 302-552 C381S/C417S/C530S)
# [4] = biological target: T3, recombinant ER-α (hER-αLBD triple mutant); experiment: biochemical
# AhR = biological target: T4, AhR (Homo sapiens, UniProt P35869); experiment: HAhLP cell luciferase assay (CYP1A1-Luc reporter in HeLa cells); format: cell-based; settings: read-out: EC50 value, induction of luciferase expression
# T4 construct: The dioxin reporter cell line was obtained by transfecting HeLa cells with CYP1A1-Luc and pSG5-puro plasmids; endogenous in cells; host or cells: HAhLP (HeLa stably transfected with CYP1A1-Luc and pSG5-puro)
# T4 sequence (P35869 11-848): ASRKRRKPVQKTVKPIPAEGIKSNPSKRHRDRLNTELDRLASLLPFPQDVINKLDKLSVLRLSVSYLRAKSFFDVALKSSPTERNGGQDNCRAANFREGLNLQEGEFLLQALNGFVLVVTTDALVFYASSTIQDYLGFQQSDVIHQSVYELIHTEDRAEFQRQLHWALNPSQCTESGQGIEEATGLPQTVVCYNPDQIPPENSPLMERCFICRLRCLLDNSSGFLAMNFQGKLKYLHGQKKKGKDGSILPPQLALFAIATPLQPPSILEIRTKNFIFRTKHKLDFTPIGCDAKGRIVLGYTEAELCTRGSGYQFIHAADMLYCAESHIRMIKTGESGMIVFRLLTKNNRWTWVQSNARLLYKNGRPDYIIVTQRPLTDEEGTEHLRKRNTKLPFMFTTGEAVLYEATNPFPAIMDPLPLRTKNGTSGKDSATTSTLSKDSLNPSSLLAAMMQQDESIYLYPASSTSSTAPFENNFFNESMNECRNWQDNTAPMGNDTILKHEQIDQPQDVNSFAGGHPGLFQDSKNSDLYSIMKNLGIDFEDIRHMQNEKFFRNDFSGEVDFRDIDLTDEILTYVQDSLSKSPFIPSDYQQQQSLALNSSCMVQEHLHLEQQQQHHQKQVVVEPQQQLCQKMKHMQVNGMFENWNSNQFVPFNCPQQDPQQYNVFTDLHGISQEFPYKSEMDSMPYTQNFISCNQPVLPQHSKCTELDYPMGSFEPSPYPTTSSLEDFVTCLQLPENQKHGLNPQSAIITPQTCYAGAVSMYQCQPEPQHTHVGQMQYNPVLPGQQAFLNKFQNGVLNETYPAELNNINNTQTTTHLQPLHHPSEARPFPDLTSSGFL
# Protocol: The dioxin reporter cell line was obtained by transfecting HeLa cells with CYP1A1-Luc and pSG5-puro plasmids. Selection of resistant clones by puromycin was performed at 0.5 μg/mL. The most dioxin-responsive clone was denominated HAhLP 1.15. […].
# as §1
# Cells were seeded at a density of 5 × 10^4 cells/well in 96-well white opaque tissue culture plates (Becton Dickinson, Le Pont de Claix, France) in 150 μL test culture medium. Compounds to be tested were prepared 4× concentrated in the same medium and 50 μL was added per well 8 hr after seeding. Cells were incubated with compounds for 16 hr. Experiments were performed in quadruplicate and repeated twice. […] The 96-well plate was then introduced in a microplate luminometer (Centro LB 960, Berthold Technologies), and intact living cell luminescence measured for 2 sec. Results are expressed as a percentage of maximum luciferase activity. […]
# Sediment and water methanol extracts were applied to MELN and HAhLP cells at 0.3% (vol/vol) maximal concentration in test culture medium, and luciferase transactivation was measured.
# [5] = half-maximal induction in MELN cell line, 16 hr, read-out: EC50 ± SE
# [6] = ratio of EC50 values of E2 to compound, E2 set at 100
# [7] = compound applied at 3 nM, 10 nM E2 = 100
# [8] = compound applied at 300 nM, 10 nM E2 = 100
molecule,measurement,setting,value
"C[C@H]1CCC[C@H](O)CCCCCc2cc(O)cc(O)c2C(=O)O1 [α -Zearalanol, α-zearalanol]",EC50,ER-α [1]; [5],0.135 nM
same,RTP,ER-α [1]; [6],13.0
same,"Induction of luciferase activity, Elution",ER-α [2]; [7],82 ± 6%
same,"Induction of luciferase activity, Flow-through",ER-α [2]; [7],17 ± 2%
same,"Induction of luciferase activity, Precolumn",ER-α [2]; [7],88 ± 2%
same,"Induction of luciferase activity, Washing",ER-α [2]; [7],16 ± 1%
"C[C@H]1CCCC(=O)CCC/C=C/c2cc(O)cc(O)c2C(=O)O1 [Zearalenone, zearalenone]",capture by recombinant ER-α / inhibition of transactivation,recombinant ER-α,captured less efficiently than was E2
same,EC50,ER-α [1],0.313 nM
same,RTP,ER-α [1]; [6],5.62
"CCCCCCCCCc1ccc(O)cc1 [4-NP, 4n-nonylphenol]",RBA,[3],0.11
same,RTP,ER-α [1],0.00016
same,EC50,ER-α [1]; [5],11000 nM
same,IC50,[4],5600 nM
"O=S1(=O)OC(c2ccc(O)cc2)(c2ccc(O)cc2)c2ccccc21 [Phenol red, phenol red]",RTP,ER-α [1],0.00005
same,EC50,ER-α [1]; [5],36900 nM
same,"Induction of luciferase activity, Elution",ER-α [2],40 ± 4%
same,"Induction of luciferase activity, Flow-through",ER-α [2],16 ± 2%
same,"Induction of luciferase activity, Precolumn",ER-α [2],36 ± 5%
same,"Induction of luciferase activity, Washing",ER-α [2],15 ± 3%
"CC(C)(c1ccc(O)cc1)c1ccc(O)cc1 [BPA, bisphenol A]","Induction of luciferase activity, Elution",ER-α [2],70 ± 2%
same,"Induction of luciferase activity, Flow-through",ER-α [2],17 ± 2%
same,"Induction of luciferase activity, Precolumn",ER-α [2],70 ± 6%
same,"Induction of luciferase activity, Washing",ER-α [2],16 ± 2%
"ClC(Cl)=C(c1ccc(Cl)cc1)c1ccccc1Cl [2,4′-DDE]",EC50,ER-α [1]; [5],2740 nM
same,RTP,ER-α [1]; [6],0.00063
"ClC(Cl)=C(c1ccc(Cl)cc1)c1ccc(Cl)cc1 [4,4′-DDE]",EC50,ER-α [1]; [5],25600 nM
same,RTP,ER-α [1]; [6],0.00007
Clc1cc2c(cc1Cl)Oc1cc(Cl)c(Cl)cc1O2 [dioxin],activation of MELN cells,ER-α [1]; MELN cells,able to partially activate MELN cells
same,EC50,AhR,0.2 nM
nonylphenol mixture [NPm],capture by recombinant ER-α / inhibition of transactivation,recombinant ER-α,only a slight or no inhibition
same,RBA,[3],0.32
same,IC50,"[3]; read-out: IC50 ± SE, 0.75 pmol recombinant ER-α, 2 nM [3H]-E2, 500 μL, 4°C 16 hr",1860 nM
same,EC50,ER-α [1]; [5],339 nM
same,RTP,ER-α [1]; [6],0.0051
same,"Induction of luciferase activity, Elution",ER-α [2]; [8],56 ± 2%
same,"Induction of luciferase activity, Flow-through",ER-α [2]; [8],17 ± 1%
same,"Induction of luciferase activity, Precolumn",ER-α [2]; [8],57 ± 4%
same,"Induction of luciferase activity, Washing",ER-α [2]; [8],16 ± 2%
